{
  "source": "patent US8835617B2",
  "about": "“Polynucleotides encoding a human TRIM-Cyp fusion polypeptide, compositions thereof, and methods of using same” (priority 2008, dated 2014)",
  "key": {"HIV-1NL4-3-GFP-IRES-Nef": {"test_system": "HIV-1NL4-3-GFP-IRES-Nef", "experiment": "Spreading infection of Jurkat T cells with replication-competent HIV-1", "assay_type": "cell-based", "conditions": "for HIV-1 replication in spreading infection: in words, Jurkat, up to two months; for isolation of resistant HIV-1: wide range of inocula", "protocol": "Jurkat T cells stably transduced with T5-expression vectors were infected with replication-competent HIV-1NL4-3-GFP-IRES-Nef.\n(§1) 2×10^4 adherent cells/well or 8×10^4 suspension cells/well were plated in 48-well plates (Nunc) for challenge with single-cycle GFP reporter vectors that were titered as indicated. GFP synthesis was assessed by flow cytometry 48 hrs post-infection. For spreading infection, 10^6 Jurkat cells were infected with 1 to 15 ng p24/10^6 cells of HIV-1NL4-3-GFP-IRES-Nef. Cells were split every 3 days, fixed in 0.5% paraformaldehyde/PBS, and assayed for GFP synthesis by flow cytometry. For infection of 10^6 primary CD4^+ T cells or macrophages, 15 ng p24/10^6 cells of a CXCR4- or CCR5-tropic HIV-1NL4-3 stock was used, and infection was monitored by assessing the accumulation of RT activity in the supernatant (Sayah et al., 2004). FACSCalibur, Cellquest Pro (Becton Dickinson), and FlowJo software (Treestar, Inc.) were used to record and analyze fluorescence. 1-5×10^5 events were acquired for analysis.\nas §1, with “cytometry.” for “cytometry. For infection of”, “or macrophages were infected with” for “or macrophages,”, “of CXCR4” for “of a CXCR4-”, “HIV-1NL4-3 stocks, or with low passage, primary isolates HIV-1DH12” for “HIV-1NL4-3 stock was used,”, “and HIV-1132W, (Olivier Schwartz, Pasteur Institute, Paris). Infection” for “and infection”, “supernatant (7).” for “supernatant (Sayah et al., 2004).”"}, "HIV-1": {"test_system": "HIV-1", "protocol": "CRFK, feline kidney fibroblast cells, lack endogenous T5 and are commonly used in the field as they have large T5-restriction phenotypes in single-cycle assays.\nas §1\nas §1, with “cytometry.” for “cytometry. For infection of”, “or macrophages were infected with” for “or macrophages,”, “of CXCR4” for “of a CXCR4-”, “HIV-1NL4-3 stocks, or with low passage, primary isolates HIV-1DH12” for “HIV-1NL4-3 stock was used,”, “and HIV-1132W, (Olivier Schwartz, Pasteur Institute, Paris). Infection” for “and infection”, “supernatant (7).” for “supernatant (Sayah et al., 2004).”"}, "FIVPET": {"test_system": "FIVPET", "experiment": "FIVPET GFP vector challenge of CRFK cells expressing T5 proteins", "assay_type": "cell-based", "conditions": "in words", "source_text": "(§2) Most HIV-1 plasmids and vectors have been described previously (Berthoux et al., 2004). pNL4-3 contains a complete infectious HIV-1 provirus. pNL4-3-R5 bears the V3 loop of the CCR5-tropic 92TH014-2 HIV-1 strain (Papkalla et al., 2002). To generate pNL4-3-GFP-IRES-Nef, enhanced green fluorescent protein (eGFP) and the ECMV (encephalomyocarditis virus) IRES (internal ribosome entry site) were inserted upstream of nef pNLΔenvGFP is pNL4-3 with an env-inactivating mutation and eGFP in place of nef. […] For biochemistry, hT5Cyps were cloned into the p3xFLAG-CMV-7.1 expression vector (Sigma) and HIV-1 CA was expressed as a GST-fusion using the EF1α promoter.\nas §1, with “For spreading infection, 10^6 Jurkat cells were infected with 1 to 15 ng p24/10^6 cells of HIV-1NL4-3-GFP-IRES-Nef. Cells were split every 3 days, fixed in 0.5% paraformaldehyde/PBS, and assayed for GFP synthesis by flow cytometry.” left out, “1-5×10^5 events were acquired for analysis.” left out"}, "SIVAGMtan": {"test_system": "SIVAGMtan", "experiment": "SIVAGMtan GFP vector challenge of CRFK cells expressing T5 proteins", "assay_type": "cell-based", "conditions": "in words", "source_text": "as §2\nas §1, with “For spreading infection, 10^6 Jurkat cells were infected with 1 to 15 ng p24/10^6 cells of HIV-1NL4-3-GFP-IRES-Nef. Cells were split every 3 days, fixed in 0.5% paraformaldehyde/PBS, and assayed for GFP synthesis by flow cytometry.” left out, “1-5×10^5 events were acquired for analysis.” left out"}, "SIVMAC251": {"test_system": "SIVMAC251", "experiment": "SIVMAC251 GFP vector challenge of CRFK cells expressing T5 proteins", "assay_type": "cell-based", "conditions": "in words", "source_text": "as §2\nas §1, with “For spreading infection, 10^6 Jurkat cells were infected with 1 to 15 ng p24/10^6 cells of HIV-1NL4-3-GFP-IRES-Nef. Cells were split every 3 days, fixed in 0.5% paraformaldehyde/PBS, and assayed for GFP synthesis by flow cytometry.” left out, “1-5×10^5 events were acquired for analysis.” left out"}, "Jurkat T cells": {"test_system": "Jurkat T cells", "experiment": "Growth and cell surface markers of transduced Jurkat T cells", "conditions": "CD4, CXCR4, CD11a, CD18, ICAM3, MHC-I"}, "[1]": {"test_system": "V86P/H87Q/I91V/M96I HIV-1", "experiment": "V86P/H87Q/I91V/M96I HIV-1 CA variant vector challenge", "assay_type": "cell-based", "source_text": "(§3) Most HIV-1 plasmids and vectors have been described previously (Berthoux et al., 2004). pNL4-3 contains a complete infectious HIV-1 provirus. pNL4-3-R5 bears the V3 loop of the CCR5-tropic 92TH014-2 HIV-1 strain (Papkalla et al., 2002). To generate pNL4-3-GFP-IRES-Nef, enhanced green fluorescent protein (eGFP) and the ECMV (encephalomyocarditis virus) IRES (internal ribosome entry site) were inserted upstream of nef pNLΔenvGFP is pNL4-3 with an env-inactivating mutation and eGFP in place of nef. CSGW is an HIV-1 vector expressing eGFP under the control of the spleen focus forming virus (SFFV) promoter. pFUPI, was engineered from pFUW (Lois et al., 2002) and uses the ubiquitin promoter to drive expression of a puromycin resistance cassette followed by ECMV IRES-T5. pAIG uses the SFFV promoter to drive expression of T5 followed by IRES-eGFP. In pscALPS, the SFFV promoter drives expression of T5 and the human CypA promoter drives expression of eGFP. For three-component vector production, HIV-1 gag and pol were expressed using either psPAX2, p8.9NΔSB, p8.9NΔSB-G89V, or p8.9NΔSB-V86P/H87Q/I91V/M96I. p8.9NΔSB-V86P/H87Q/I91V/M96I is p8.9NΔSB with the V86P/H87Q/I91V/M96I mutation (Chatterji et al., 2005) introduced in CA. […] For biochemistry, hT5Cyps were cloned into the p3xFLAG-CMV-7.1 expression vector (Sigma) and HIV-1 CA was expressed as a GST-fusion using the EF1α promoter."}, "HIV-1NL4-3-IRES-GFP-Nef": {"test_system": "HIV-1NL4-3-IRES-GFP-Nef", "experiment": "Single-cycle cell-to-cell spreading assay, 293T donors and Jurkat targets", "assay_type": "cell-based", "conditions": "protein expressed in 293T donor cells, 2 hours co-culture", "source_text": "The mechanism underlying these observations has not yet been determined. […] This would implicate T5-mediated restriction both at post-entry and at a much later step in the viral life cycle (Sakuma et al., 2007; Zhang et al., 2008a). […] To assess the effects of donor and target cell T5Cyp on cell-to-cell spread of HIV-1, a single-cycle cell-to-cell spreading assay for HIV-1 infection was designed. 293T donor cell lines expressing control or indicated T5Cyp were transfected with HIV-1NL4-3-IRES-GFP-Nef provirus and supernatant was harvest during the first 48 hours to measure production of virus by RT activity. […] At the indicated time points dextran sulfate was added to the co-culture to block further infection and cells were harvested. 48 hours later the percentage of infected target Jurkat T cells was measured by flow cytometry (FIG. 53A). The magnitude of HIV-1 restriction in single cycle assays using cell-free virus is shown for recipient Jurkat T cell lines and donor 293 T cell lines is shown (FIG. 53B)."}, "HIV-1-G89V": {"test_system": "HIV-1-G89V", "experiment": "HIV-1-G89V CA mutant vector challenge of CRFK cells", "assay_type": "cell-based", "source_text": "as §3"}},
  "note": "Entries after “also recorded” stand apart in the source; their conditions may differ.",
  "data": [
    {"substance": "AoT5Cyp: Aotus (owl monkey) TRIM5-cyclophilin A fusion protein [reference compound]", "values": [
      {"measurement": "HIV-1 replication in spreading infection", "setting": "HIV-1NL4-3-GFP-IRES-Nef", "value": "No HIV-1 replication was detected; also recorded: HIV-1 replication was not detected"},
      {"measurement": "isolation of resistant HIV-1", "setting": "HIV-1NL4-3-GFP-IRES-Nef", "value": "could not be isolated"},
      {"measurement": "block of HIV-1 infection relative to hT5Cyp", "setting": "HIV-1; CRFK cells, low multiplicities of infection", "value": "about 10 fold"},
      {"measurement": "HIV-1 restriction activity", "setting": "HIV-1; in words, CRFK cells", "value": "restricted all four lentiviruses"},
      {"measurement": "inhibition of HIV-1", "setting": "HIV-1; single-cycle infection of CRFK cells", "value": "~1000", "unit": "fold"},
      {"measurement": "restriction of FIVPET", "setting": "FIVPET", "value": "blocked comparably"},
      {"measurement": "restriction of SIVAGMtan", "setting": "SIVAGMtan", "value": "restricted all four lentiviruses"},
      {"measurement": "restriction of SIVMAC251", "setting": "SIVMAC251", "value": "neither AoT5Cyp nor hT5Cyp can restrict this virus"},
      {"measurement": "growth kinetics and cell surface marker levels vs control vector", "setting": "Jurkat T cells", "value": "grew with the same kinetics and expressed similar levels"},
      {"measurement": "block of V86P/H87Q/I91V/M96I HIV-1", "setting": "[1]", "value": "blocked infection by viruses bearing this sequence as efficiently as they block standard HIV-1 clones"},
      {"measurement": "infection of control target cells lower than with empty vector donors", "setting": "HIV-1NL4-3-IRES-GFP-Nef", "value": 3, "unit": "fold"},
      {"measurement": "restriction of HIV-1-G89V", "setting": "HIV-1-G89V", "value": "failed to restrict HIV-1-G89V"}
    ]},
    {"substance": "hT5Cyp: human TRIM5α fused at serine 322 to human cyclophilin A, SEQ ID NO:12", "values": [
      {"measurement": "HIV-1 replication in spreading infection", "setting": "HIV-1NL4-3-GFP-IRES-Nef", "value": "No HIV-1 replication was detected; also recorded: significantly greater anti-HIV-1 activity than a chimeric human/rhesus monkey TRIM5α; also recorded: HIV-1 replication was not detected; also recorded: superior anti-HIV-1 activity"},
      {"measurement": "isolation of resistant HIV-1", "setting": "HIV-1NL4-3-GFP-IRES-Nef", "value": "could not be isolated"},
      {"measurement": "potency relative to hT5αR323-332 and hT5αR332P", "setting": "HIV-1; CRFK cells", "value": "~10", "unit": "fold"},
      {"measurement": "restriction of HIV-1 relative to rhT5α", "setting": "HIV-1; CRFK cells", "value": "~10", "unit": "fold"},
      {"measurement": "restriction of FIVPET", "setting": "FIVPET", "value": "blocked comparably"},
      {"measurement": "restriction of SIVAGMtan", "setting": "SIVAGMtan", "value": "significantly better than AoT5Cyp at low MOI"},
      {"measurement": "restriction of SIVMAC251", "setting": "SIVMAC251", "value": "neither AoT5Cyp nor hT5Cyp can restrict this virus"},
      {"measurement": "growth kinetics and cell surface marker levels vs control vector", "setting": "Jurkat T cells", "value": "grew with the same kinetics and expressed similar levels"},
      {"measurement": "block of V86P/H87Q/I91V/M96I HIV-1", "setting": "[1]", "value": "blocked infection by viruses bearing this sequence as efficiently as they block standard HIV-1 clones"},
      {"measurement": "infection of control target cells lower than with empty vector donors", "setting": "HIV-1NL4-3-IRES-GFP-Nef", "value": 10, "unit": "fold"},
      {"measurement": "restriction of HIV-1-G89V", "setting": "HIV-1-G89V", "value": "failed to restrict HIV-1-G89V"}
    ]}
  ]
}
